Laboratory results: patent publication US11630110B2, “Methods to identify protein interaction” (AGENCY FOR SCIENCE, TECHNOLOGY AND RESEARCH, priority 2017, dated 2023)

What was measured:
NF-kβ signaling pathway = assay: Western blotting of NFκB signalling pathway members; type: cell-based; conditions: K562 cells, 20 μM methotrexate 48 hours, presence and absence of TNF; FIG. 16A
Protocol: Cells were washed with DPBS (without calcium and magnesium) once, then lysed in TOTEX Buffer (20 mM Hepes at pH 7.9, 0.35M NaCl, 20% Glycerol, 1% NP-40, 1 mM MgCl2, 0.1 mM EGTA) including 50 mM NaF, 0.3 mM […] and protease inhibitor cocktail. Supernatant including proteins was collected, followed by centrifugation at full speed for 20 minutes. Western blotting was performed by following standard procedures using the following antibodies: Rabbit Anti-phospho-IKKα/β (S180/181) (1:1,000; Bioworld Technology, BS5082), Rabbit Anti-phospho-IKBα (S32) (1:1,000; Cell Signalling Technology, 2859), Rabbit Anti-IKBα (1:1,000; Santa Cruz Biotechnology, sc-371), Rabbit Anti-phospho-p65 ([…]) (1:1,000; Cell Signalling Technology, 3031), Mouse Anti-HSP90 (1:1,000; BD, 610419), Goat Anti-Rabbit IgG-HRP (1:5,000; Santa Cruz Biotechnology, sc-2054) and Goat Anti-Mouse IgG-HRP (1:5,000; Santa Cruz Biotechnology, sc-2005).

K562 cells = assay: DNA content analysis by FACS of propidium iodide staining; type: cell-based; conditions: 20 μM methotrexate, 48 hours, vs DMSO, FIG. 34

SMILES: CN(Cc1cnc2nc(N)nc(N)c2n1)c1ccc(C(=O)N[C@@H](CCC(=O)O)C(=O)O)cc1 [methotrexate]
- activation of the NF-kβ signaling pathway (NF-kβ signaling pathway): suppressing activation
- phosphorylation of IKKα/β complex, IκBα and p65 (NF-kβ signaling pathway): inhibiting phosphorylation
- cell cycle state of K562 cells (K562 cells): arrested in the S phase
